Biological target: T1, BRM (Homo sapiens, UniProt P51531)
T1 construct: Western Blot Screen of BRM Degradation in SW1573 Cells; endogenous in cells; host or cells: SW1573 cells
Assay: BRM degradation (Dmax and DC50) in SW1573 cells, Western blot screen / In-Cell Western screen
Type: cell-based
Details: overnight (18-20 hours) treatment; for Dmax: read-out: Dmax (%)** (% degraded)
In short: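 Dmax and DC50 were derived from BRM levels normalised to an alpha-tubulin control, measured by chemiluminescent Western blotting of lysates or by PFA-fixed In-Cell Western on LI-COR Odyssey. SW1573 cells received compound overnight (18–20 h, 0.1% DMSO final).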

T1 sequence (P51531 whole entry): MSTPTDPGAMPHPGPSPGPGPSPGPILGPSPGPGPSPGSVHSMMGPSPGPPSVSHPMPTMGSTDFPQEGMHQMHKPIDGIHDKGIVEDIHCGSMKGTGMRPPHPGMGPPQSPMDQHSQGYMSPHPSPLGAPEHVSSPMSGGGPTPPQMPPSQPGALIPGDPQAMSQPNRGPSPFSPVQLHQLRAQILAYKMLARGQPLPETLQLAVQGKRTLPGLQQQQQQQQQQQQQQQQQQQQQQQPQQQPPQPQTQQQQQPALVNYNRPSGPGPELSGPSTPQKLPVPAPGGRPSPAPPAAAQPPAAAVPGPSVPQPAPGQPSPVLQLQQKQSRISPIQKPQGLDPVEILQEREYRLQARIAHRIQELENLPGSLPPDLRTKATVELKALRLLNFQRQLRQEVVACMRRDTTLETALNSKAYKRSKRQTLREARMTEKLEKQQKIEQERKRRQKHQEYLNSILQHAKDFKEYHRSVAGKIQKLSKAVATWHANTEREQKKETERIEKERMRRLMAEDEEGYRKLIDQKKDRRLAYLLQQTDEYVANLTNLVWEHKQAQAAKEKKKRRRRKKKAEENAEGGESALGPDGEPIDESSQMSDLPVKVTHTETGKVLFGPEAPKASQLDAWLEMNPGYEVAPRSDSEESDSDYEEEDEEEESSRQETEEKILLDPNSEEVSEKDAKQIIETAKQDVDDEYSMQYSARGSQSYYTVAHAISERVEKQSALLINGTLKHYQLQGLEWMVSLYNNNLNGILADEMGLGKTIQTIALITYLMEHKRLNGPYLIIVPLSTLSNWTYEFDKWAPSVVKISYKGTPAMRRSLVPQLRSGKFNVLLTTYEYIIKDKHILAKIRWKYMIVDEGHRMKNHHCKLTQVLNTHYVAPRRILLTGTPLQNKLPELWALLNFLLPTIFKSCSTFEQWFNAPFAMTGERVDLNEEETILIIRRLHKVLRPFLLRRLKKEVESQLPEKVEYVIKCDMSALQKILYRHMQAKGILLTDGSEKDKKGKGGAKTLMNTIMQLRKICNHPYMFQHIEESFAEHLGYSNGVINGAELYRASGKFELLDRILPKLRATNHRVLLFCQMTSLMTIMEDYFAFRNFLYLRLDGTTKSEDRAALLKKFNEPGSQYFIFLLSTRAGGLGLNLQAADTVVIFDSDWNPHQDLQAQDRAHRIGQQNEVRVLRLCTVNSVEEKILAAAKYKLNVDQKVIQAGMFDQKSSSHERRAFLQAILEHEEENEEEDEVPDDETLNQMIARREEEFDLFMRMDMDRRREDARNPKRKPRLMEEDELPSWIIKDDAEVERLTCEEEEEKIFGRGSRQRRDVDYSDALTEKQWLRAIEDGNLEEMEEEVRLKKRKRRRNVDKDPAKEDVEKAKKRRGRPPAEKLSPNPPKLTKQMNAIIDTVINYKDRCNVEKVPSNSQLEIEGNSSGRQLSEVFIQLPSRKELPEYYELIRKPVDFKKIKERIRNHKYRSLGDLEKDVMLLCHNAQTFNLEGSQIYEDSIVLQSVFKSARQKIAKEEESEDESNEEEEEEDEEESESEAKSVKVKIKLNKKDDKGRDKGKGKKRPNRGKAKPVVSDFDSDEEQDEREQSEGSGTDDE

SMILES	DC50 [nM]	Dmax [%]
Cc1ncsc1-c1ccc([C@H](C)NC(=O)[C@@H]2C[C@@H](O)CN2C(=O)[C@@H](c2cc(N3CCC(CN4CCC5(CC4)CC(N4CCO[C@@H](C(=O)N6C7CCC6CN(c6cc(-c8ccccc8O)nnc6N)C7)C4)C5)CC3)no2)C(C)C)cc1 [Compound 62, (2S,4R)-1-[(2R)-2-{3-[4-({2-[(2R)-2-{3-[3-amino-6-(2-hydroxyphenyl)pyridazin-4-yl]-3,8-diazabicyclo[3.2.1]octane-8-carbonyl}morpholin-4-yl]-7-azaspiro[3.5]nonan-7-yl}methyl)piperidin-1-yl]-1,2-oxazol-5-yl}-3-methylbutanoyl]-4-hydroxy-N-[(1S)-1-[4-(4-methyl-1,3-thiazol-5-yl)phenyl]ethyl]pyrrolidine-2-carboxamide]	< 2.5	> 75
Cc1ncsc1-c1ccc([C@H](C)NC(=O)[C@@H]2C[C@@H](O)CN2C(=O)[C@@H](c2cc(N3CCC(CN4CCC5(CC4)CC(N4CCC(C(=O)N6C7CCC6CN(c6cc(-c8ccccc8O)nnc6N)C7)CC4)C5)CC3)no2)C(C)C)cc1 [Compound 58, (2S,4R)-1-[(2R)-2-[3-(4-{[2-(4-{3-[3-amino-6-(2-hydroxyphenyl)pyridazin-4-yl]-3,8-diazabicyclo[3.2.1]octane-8-carbonyl}piperidin-1-yl)-7-azaspiro[3.5]nonan-7-yl]methyl}piperidin-1-yl)-1,2-oxazol-5-yl]-3-methylbutanoyl]-4-hydroxy-N-[(1S)-1-[4-(4-methyl-1,3-thiazol-5-yl)phenyl]ethyl]pyrrolidine-2-carboxamide]	< 2.5	> 75
Cc1ncsc1-c1ccc([C@H](C)NC(=O)[C@@H]2C[C@@H](O)CN2C(=O)[C@@H](c2cc(N3CCC(CN4CCC(O[C@H]5C[C@H](C(=O)N6CCC(N7C8CCC7CN(c7cc(-c9ccccc9O)nnc7N)C8)CC6)C5)CC4)CC3)no2)C(C)C)cc1 [Compound 76, (2S,4R)-4-hydroxy-N-[(1S)-1-[4-(4-methyl-1,3-thiazol-5-yl)phenyl]ethyl]-1-[(2R)-3-methyl-2-{3-[4-({4-[(1r,3r)-3-(4-{3-[3-amino-6-(2-hydroxyphenyl)pyridazin-4-yl]-3,8-diazabicyclo[3.2.1]octan-8-yl}piperidine-1-carbonyl)cyclobutoxy]piperidin-1-yl}methyl)piperidin-1-yl]-1,2-oxazol-5-yl}butanoyl]pyrrolidine-2-carboxamide]	2.5 to 10	> 75
CC(C)[C@@H](C(=O)N1C[C@H](O)C[C@H]1C(=O)N[C@@H](C)c1ccc(C#N)cc1)c1cc(N2CCC(CN3CCC(O[C@H]4C[C@H](Oc5cc(N6C7CC6CN(c6cc(-c8ccccc8O)nnc6N)C7)ccn5)C4)CC3)CC2)no1 [Compound 17, (2S,4R)-N-[(1S)-1-(4-cyanophenyl)ethyl]-4-hydroxy-1-[(2R)-3-methyl-2-{3-[4-({4-[(1r,3r)-3-[(4-{3-[3-amino-6-(2-hydroxyphenyl)pyridazin-4-yl]-3,6-diazabicyclo[3.1.1]heptan-6-yl}pyridin-2-yl)oxy]cyclobutoxy]piperidin-1-yl}methyl)piperidin-1-yl]-1,2-oxazol-5-yl}butanoyl]pyrrolidine-2-carboxamide]	< 2.5	> 75
Cc1ncsc1-c1ccc([C@H](C)NC(=O)[C@@H]2C[C@@H](O)CN2C(=O)[C@@H](c2cc(N3CCC(CN4CCC(O[C@H]5C[C@H](N6CCN(CC7C8CCC7CN(c7cc(-c9ccccc9O)nnc7N)C8)CC6)C5)CC4)CC3)no2)C(C)C)cc1 (stereo partly drawn) [Compound 47, (2S,4R)-4-hydroxy-N-[(1S)-1-[4-(4-methyl-1,3-thiazol-5-yl)phenyl]ethyl]-1-[(2R)-3-methyl-2-{3-[4-({4-[(1r,3r)-3-[4-({3-[3-amino-6-(2-hydroxyphenyl)pyridazin-4-yl]-3-azabicyclo[3.2.1]octan-8-yl}methyl)piperazin-1-yl]cyclobutoxy]piperidin-1-yl}methyl)piperidin-1-yl]-1,2-oxazol-5-yl}butanoyl]pyrrolidine-2-carboxamide]	2.5 to 10	> 75
Cc1ncsc1-c1ccc([C@H](C)NC(=O)[C@@H]2C[C@@H](O)CN2C(=O)[C@@H](c2cc(N3CCC(CN4CCC(O[C@H]5C[C@@H](N6CCC([C@@H](C)n7cc(-c8cc(-c9ccccc9O)nnc8N)cn7)CC6)C5)CC4)CC3)no2)C(C)C)cc1 (single isomer, unassigned) [Compound 6]	< 2.5	> 75
Cc1ncsc1-c1ccc([C@H](C)NC(=O)[C@@H]2C[C@@H](O)CN2C(=O)[C@@H](c2cc(N3CCC(CN4CCC5(CC4)CC(n4cc(C#Cc6cc(-c7ccccc7O)nnc6N)cn4)C5)CC3)no2)C(C)C)cc1 [Compound 63, (2S,4R)-1-[(2R)-2-[3-(4-{[2-(4-{2-[3-amino-6-(2-hydroxyphenyl)pyridazin-4-yl]ethynyl}-1H-pyrazol-1-yl)-7-azaspiro[3.5]nonan-7-yl]methyl}piperidin-1-yl)-1,2-oxazol-5-yl]-3-methylbutanoyl]-4-hydroxy-N-[(1S)-1-[4-(4-methyl-1,3-thiazol-5-yl)phenyl]ethyl]pyrrolidine-2-carboxamide]	< 2.5	> 75
CC(C)[C@@H](C(=O)N1C[C@H](O)C[C@H]1C(=O)N[C@@H](C)c1ccc(C#N)cc1)c1cc(N2CCN(C(=O)N3CCC(O[C@H]4C[C@H](Oc5cc(N6C7CCC6CN(c6cc(-c8ccccc8O)nnc6N)C7)ccn5)C4)CC3)CC2)no1 [Compound 140, (2S,4R)-N-[(1S)-1-(4-cyanophenyl)ethyl]-4-hydroxy-1-[(2R)-3-methyl-2-[3-(4-{4-[(1r,3r)-3-[(4-{3-[3-amino-6-(2-hydroxyphenyl)pyridazin-4-yl]-3,8-diazabicyclo[3.2.1]octan-8-yl}pyridin-2-yl)oxy]cyclobutoxy]piperidine-1-carbonyl}piperazin-1-yl)-1,2-oxazol-5-yl]butanoyl]pyrrolidine-2-carboxamide]	< 2.5	> 75
Cc1ncsc1-c1ccc([C@H](C)NC(=O)[C@@H]2C[C@@H](O)CN2C(=O)[C@@H](c2cc(OCCN3CCC(O[C@H]4C[C@H](OC(=O)N5CCN(c6cc(-c7ccccc7O)nnc6N)CC5)C4)CC3)no2)C(C)C)cc1 [Compound 81, (1r,3r)-3-({1-[2-({5-[(2R)-1-[(2S,4R)-4-hydroxy-2-{[(1S)-1-[4-(4-methyl-1,3-thiazol-5-yl)phenyl]ethyl]carbamoyl}pyrrolidin-1-yl]-3-methyl-1-oxobutan-2-yl]-1,2-oxazol-3-yl}oxy)ethyl]piperidin-4-yl}oxy)cyclobutyl 4-[3-amino-6-(2-hydroxyphenyl)pyridazin-4-yl]piperazine-1-carboxylate]	< 2.5	> 75
Cc1ncsc1-c1ccc([C@H](C)NC(=O)[C@@H]2C[C@@H](O)CN2C(=O)[C@@H](c2cc(N3CCN(C(=O)[C@H]4C[C@H](Oc5cc(N6C7CCC6CN(c6cc(-c8ccccc8O)nnc6N)C7)ccn5)C4)CC3)no2)C(C)C)cc1 [Compound 107, (2S,4R)-4-hydroxy-N-[(1S)-1-[4-(4-methyl-1,3-thiazol-5-yl)phenyl]ethyl]-1-[(2R)-3-methyl-2-(3-{4-[(1r,3r)-3-[(4-{3-[3-amino-6-(2-hydroxyphenyl)pyridazin-4-yl]-3,8-diazabicyclo[3.2.1]octan-8-yl}pyridin-2-yl)oxy]cyclobutanecarbonyl]piperazin-1-yl}-1,2-oxazol-5-yl)butanoyl]pyrrolidine-2-carboxamide]	≥ 30	

— patent US20250059198A1, “BRM DEGRADING COMPOUNDS AND ASSOCIATED METHODS OF USE” (Arvinas Operations, Inc., priority 2021, published 2025)
